# Assay results reported in patent publication US20080306019A1, “Dopamine Receptor Agonists in the Treatment and Prevention of Hiv-Induced Dementia” (priority 2005, published 2008).
# Entries after “also recorded” stand apart in the source; their conditions may differ.
# Key:
# [1] = tested on: rat hippocampal neurons; assay: Live/Dead (Calcein/Ethidium) viability of rat hippocampal neuronal cultures; settings: hydrochloride
# [2] = cited from earlier work
# [3] = tested on: adult female Sprague-Dawley rats (ovariectomized); assay: Locomotor activity after intra-accumbal Tat and IV cocaine (Example 4); format: in vivo, rat; settings: IV cocaine 3.0 mg/kg, saline intra-accumbal
# Experimental: Animals. […] Ovariectomy was also performed on all rats during the same surgical procedure.
# Intra-accumbal TAT injection. A 2 treatment×2 drug, design was used. Thus, rats received bilateral injections of TAT or vehicle into the nucleus accumbens core and were subsequently administered an IV injection of cocaine (3.0 mg/kg/injection) or saline. Rats were administered intra-accumbal TAT or VEH injections according to methods previously described (Bansal et al., 2000). Briefly, 15 μg of Tat were injected bilaterally, using a Hamilton Syringe coated with Sigmacote, at the following coordinates: 1.8 mm anterior, ±1.6 mm lateral, and 7.0 mm ventral from bregma on the skull surface.
# Locomotor activity. The activity monitors were 16-cm diameter, round open-field chambers (Flex-Field, San Diego Instruments, San Diego, Calif.) that detected free movement of animals by infrared photocell interruptions. This equipment used an infrared photocell grid (32 emitter/detector pairs) to measure total locomotor activity. […]
# Drug Treatment. […] The dose of cocaine hydrochloride (3.0 mg/kg/day; Sigma, St. Louis, Mo.) was calculated on the weight of the salt and dissolved in saline for an injection volume of 1 ml/kg.
# [4] = tested on: ovariectomized female Sprague-Dawley rats; assay: IV cocaine-induced locomotor activity after intra-accumbal Tat (1-72) (Example 14); format: in vivo, rat; settings: for mean total activity (±SEM): IV cocaine 3.0 mg/kg; for mean TIC (time in center): across days; for TIC, acute (Day 1): acute IV cocaine
# Source text: Animals: Sixty-four adult ovariectomized female, Sprague-Dawley rats (70 days old) were obtained from Harlan Laboratories, Inc. (Indianapolis, Ind.). All rats were surgically implanted with an Intracath IV catheter (22 ga, Becton/Dickinson General Medical Corp., Grand Prarie, Tex.), which was used as a SC, dorsally implanted port for chronic IV injections. The subcutaneous implantable access port for rats was developed and described by Mactutus et al. (1994). Ovariectomized rats were used because estrogen is protective against the neurotoxic effects of Tat (Wallace et al., 2006). Serial ovariectomy and indwelling jugular catheter surgeries occurred for all rats during the same procedure. Upon arrival at the animal care facilities, rats were placed in quarantine for 7 days, and then transferred to the colony. Animals were pair housed throughout the experiment and the catheters were flushed daily with 0.2 ml of heparinized (2.5%) saline. Rodent food (Pro-Lab Rat, Mouse Hamster Chow #3000) and water were provided ad lib. The colony was maintained at 21±2° C., 50%±10% relative humidity and a 12L: 12D cycle with lights on at 0700 h (EST).
# Locomotor activity: Habituation: Rats in the vehicle-saline (VEH-SAL), Tat-saline (Tat-SAL), vehicle-cocaine (VEH-COC), and Tat-cocaine (TAT-COC) groups were habituated to the locomotor activity chambers for two 60-min sessions, one/day. Twenty four hours after the second habituation session, all rats were injected with IV saline and placed into the activity chambers for 30-min to measure baseline activity. The activity monitors were square (40×40 cm) open-field chambers (Hamilton-Kinder Inc., Poway, Calif.) that detected free movement of animals by infrared photocell interruptions. This equipment used an infrared photocell grid (32 emitter/detector pairs) to measure locomotor activity. The chambers were converted into round (˜40 cm diameter) compartments by adding clear Plexiglas inserts; photocell emitter/detector pairs were tuned by the manufacturer to handle the extra perspex width. Circular chambers increase the sensitivity to detect locomotor activity (Harrod et al., 2006). All activity monitors were located in an isolated room.
# Intra-accumbal Tat microinjection: All rats received intra-accumbal Tat or vehicle (VEH; physiological saline) injections approximately 24 hours after the saline baseline activity session and then received subsequent IV injections of cocaine (3.0 mg/kg/injection) or saline according to a 2×2, protein×drug, design. […] Tat was therefore administered to the core region of the N Acc to determine if the sensitization process was disrupted. Rats were administered intra-accumbal Tat or VEH injections according to methods previously described (Bansal et al., 2000; Aksenov et al., 2003). Briefly, rats were anesthetized using a mixture of ketamine hydrochloride and xylazine by intraperatoneal (IP) injection (7.5 mg ketamine/100 gb.wt. […].). 15 μg/l of Tat was injected bilaterally, using a silanized Hamilton Syringe at the following coordinates: 1.8 mm anterior, ±1.6 mm lateral, and 7.0 mm ventral from bregma on the skull surface, over an interval of one minute, with a one minute tissue recovery period before withdrawal.
# IV cocaine-induced locomotor activity: Twenty-four hours after rats received bilateral intra-accumbal injections, IV cocaine or saline was administered. The animals were immediately placed into locomotor activity chambers following cocaine or saline. The animals' locomotor activity response to cocaine was assessed for 30 minutes on only two occasions: immediately after the first (Day 1) and last (Day 14) cocaine injections; however, rats were administered daily IV cocaine or saline injections in the home cage on days 2-13. […]
# [5] = repeated daily dosing in rat (Robinson et al. 1994)
structure (smiles),measurement,setting,value
"COC(=O)[C@H]1[C@@H](OC(=O)c2ccccc2)C[C@@H]2CC[C@H]1N2C.Cl [cocaine, Cocaine hydrochloride]","neuronal cell death / Tat toxicity, Tat + cocaine vs Tat alone","[1]; 50 nM Tat + 1.5-1.6 μM cocaine, 48 hours",significantly higher in cultures subjected to both Tat and cocaine; also recorded: enhanced Tat toxicity
same,"toxicity / cell viability, cocaine alone",[1]; cocaine alone (0.1-10 μM; 1.5 μM),No toxicity; also recorded: did not change cell viability
same,time to peak arterial plasma levels,[2]; 3.0 mg/kg/injection IV (Booze et al. 1997),within one-minute
same,t1/2 in plasma,"[2]; IV 3.0 mg/kg, rats (Booze et al., 1997)",12 to 13 min
same,fetal brain levels of cocaine,[2]; [5],1750 ± 250 ng/mL
same,fetal plasma levels of cocaine,[2]; [5],500 ng/mL
same,"centrally directed activity, cocaine",[3],cocaine-induced increase in centrally directed activity
same,"total activity, repeated IV cocaine",[4]; 14 days,induced behavioral sensitization of total activity
same,mean total activity (±SEM),[4]; 10 minute,2363.0 (±120.0)
same,mean total activity (±SEM),[4]; 20 minute,1660.6 (±103.8)
same,mean total activity (±SEM),[4]; 30 minute,1494.01 (±66.5)
same,mean TIC (time in center),[4]; 10 minute,116.6 (±12.4) seconds
same,mean TIC (time in center),[4]; 20 minute,152.3 (±20.1) seconds
same,mean TIC (time in center),[4]; 30 minute,160.3 (±19.6) seconds
same,"TIC, acute (Day 1)",[4]; 10 minute,72.1 (±15.0) seconds
same,"TIC, acute (Day 1)",[4]; 20 minute,100.2 (±19.0) seconds
same,"TIC, acute (Day 1)",[4]; 30 minute,108.9 (±24.4) seconds
same,"total activity, acute cocaine (Day 1)","[4]; rat, in vivo",did not increase total activity
same,"locomotor composite incidence scores, VEH-COC vs VEH-SAL",[4]; repeated (day 14) cocaine,significantly higher locomotor composite incidence scores
